Source: patent US20260274800A1, “Heterocyclic Compound And Use Thereof In Medicine” (Kangbaida (Sichuan) Biotechnology Co., Ltd., priority 2023, published 2026)

What was measured:
[1] = molecular target: T1, MRGPRX4 (Homo sapiens, UniProt Q96LA9); experiment: Detection of MRGPRX4 activity (IP1 HTRF, deoxycholic acid stimulation); assay type: cell-based; details: HEK-293 cells stably expressing MRGPRX4; compound 45 min, then deoxycholic acid 45 min; IP1 content by HTRF
T1 construct: expressed in transfected cells
T1 sequence (Q96LA9 whole entry): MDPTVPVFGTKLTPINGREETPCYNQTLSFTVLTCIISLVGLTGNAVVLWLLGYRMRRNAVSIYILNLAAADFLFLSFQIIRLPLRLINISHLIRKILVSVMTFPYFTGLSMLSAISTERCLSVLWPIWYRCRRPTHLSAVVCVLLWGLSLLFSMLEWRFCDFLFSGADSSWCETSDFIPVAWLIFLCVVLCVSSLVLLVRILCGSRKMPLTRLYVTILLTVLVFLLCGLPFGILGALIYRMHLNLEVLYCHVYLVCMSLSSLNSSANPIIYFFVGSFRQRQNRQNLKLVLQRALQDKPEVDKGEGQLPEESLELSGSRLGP
Experimental: HEK-293 cells stably expressing MRGPRX4 were cultured in a DMEM medium containing 10% of FBS and 1% of a double antibody under the culture conditions of 37° C. and 5% CO2. Cells in the exponential growth phase were collected and inoculated into a 384-well plate at an inoculation density of 2×10^4 cells/well, with 10 μL per well. 2 μL/well of a gradient-diluted compound was added and co-incubated with the cells for 45 min. After the incubation was complete, 2 μL/well of deoxycholic acid (MCE, Cat: #HY-N0593) was added to continue the incubation for 45 min. After the incubation was complete, IP-one Gq kit (PE, Cat: #62IPAPEB) was used to detect the content of IP1 according to the instructions. HTRF values were substituted into GraphPad 8.0, and IC50 was calculated by fitting.

[2] = Study of pharmacokinetics in mice in vivo; design: species or system C57BL/6 mice; details: male, C57BL/6, mouse, po (intragastric), 50 mg/kg, plasma
Experimental: An appropriate amount of the test substance was weighed, and the test substance was prepared into a 2 mg/mL transparent clear solution using 5% DMSO+5% HS-15 (Solutol HS-15)+90% D5W (5% glucose) for intravenous administration. The test substance was prepared into a 5 mg/mL uniform suspension using 5% DMSO+5% HS-15+90% PBS for intragastric administration.
18 healthy male C57BL/6 mice (GemPharmatech Co., Ltd., SPF grade) were taken. The intravenous administration group and the intragastric administration group respectively had 9 animals. At each time point, blood samples were taken from 3 animals via an orbital microsampling method, with a sampling volume of approximately 0.04 mL per animal per time point.
For intravenous administration of the test substance (10 mg/kg), blood samples were taken before administration and at 5 min, 15 min, 0.5 h, 1 h, 2 h, 4 h, 8 h, and 24 h after administration, and for intragastric administration of the test substance (50 mg/kg), blood samples were taken before administration and at 15 min, 0.5 h, 1 h, 2 h, 4 h, 8 h, and 24 h after administration. After anticoagulation with EDTA-K2, the blood samples were centrifuged at 6000 g at 4° C. for 5 min to separate plasma, and all plasma samples were stored at −70° C. for testing. The drug concentration of the test substance in plasma was determined by LC-MS/MS method (with tolbutamide as an internal standard), and the main pharmacokinetic parameters were calculated by Winnolin 8.3 non-compartment model.

| IC50 [1] [nM] | AUC [2] [µg·h/mL] | Cmax [2] [µg/mL] | half-life [2] [h] | Structure (SMILES) |
| --- | --- | --- | --- | --- |
| ≤ 200 | – | – | – | O=C(O)c1cccc(Cn2ccc3cc(Cl)c(Cl)cc32)c1F [Compound 6, 3-((5,6-Dichloro-1H-indol-1-yl)methyl)-2-fluorobenzoic acid] |
| ≤ 200 | – | – | – | O=C(O)c1cccc(Cn2ncc3cc(Cl)c(F)c(Cl)c32)c1F [Compound 51, 3-((5,7-Dichloro-6-fluoro-1H-indazol-1-yl)methyl)-2-fluorobenzoic acid] |
| ≤ 200 | – | – | – | O=C(O)c1cccc(Cn2ccc3c(Cl)cc(Cl)cc32)c1F [Compound 79, 3-((4,6-Dichloro-1H-indol-1-yl)methyl)-2-fluorobenzoic acid] |
| ≤ 200 | – | – | – | Cc1cc(OC(F)(F)F)cc2ccn(Cc3cccc(C(=O)O)c3F)c12 [Compound 87, 2-Fluoro-3-((7-methyl-5-(trifluoromethoxy)-1H-indol-1-yl)methyl)benzoic acid] |
| ≤ 200 | – | – | – | Cc1ccc2c(ccn2Cc2cccc(C(=O)O)c2F)c1Cl [Compound 62, 3-((4-Chloro-5-methyl-1H-indol-1-yl)methyl)-2-fluorobenzoic acid] |
| 200 to 500 | – | – | – | O=C(O)c1cccc(Cn2ncc3c(F)c(Cl)ccc32)c1F [Compound 48, 3-((5-Chloro-4-fluoro-1H-indazol-1-yl)methyl)-2-fluorobenzoic acid] |
| ≤ 200 | – | – | – | O=C(O)c1cccc(Cn2ncc3cc(Cl)cc(Br)c32)c1F [Compound 36, 3-((7-Bromo-5-chloro-1H-indazol-1-yl)methyl)-2-fluorobenzoic acid] |
| ≤ 200 | 1580 | 132 | 9.81 | O=C(O)c1cccc(Cn2ncc3cc(Cl)c(Cl)c(Cl)c32)c1F [Compound 28, 2-Fluoro-3-((5,6,7-trichloro-1H-indazol-1-yl)methyl)benzoic acid] |
| 500 to 1000 | – | – | – | O=C(O)c1cc(Cn2ncc3cc(C(F)(F)F)cc(Br)c32)ccc1F [Compound 41, 5-((7-Bromo-5-(trifluoromethyl)-1H-indazol-1-yl)methyl)-2-fluorobenzoic acid] |
| ≤ 200 | – | – | – | CC(c1cccc(C(=O)O)c1F)n1ncc2cc(Cl)c(Cl)c(Cl)c21 (stereo not drawn) [Compound 39, 2-Fluoro-3-(1-(5,6,7-trichloro-1H-indazol-1-yl)ethyl)benzoic acid] |
| ≤ 200 | – | – | – | O=C(O)c1cccc(Cn2ccc3c(F)c(Cl)ccc32)c1F [Compound 66, 3-((5-Chloro-4-fluoro-1H-indol-1-yl)methyl)-2-fluorobenzoic acid] |
| 200 to 500 | – | – | – | O=C(O)c1cccc(Cn2ncc3cc(C(F)(F)F)cc(Br)c32)c1F [Compound 22, 3-((7-Bromo-5-(trifluoromethyl)-1H-indazol-1-yl)methyl)-2-fluorobenzoic acid] |
| ≤ 200 | 725 | 121 | 3.49 | O=C(O)c1cccc(Cn2ccc3cc(Cl)cc(Cl)c32)c1F [Compound 5, 3-((5,7-Dichloro-1H-indol-1-yl)methyl)-2-fluorobenzoic acid] |

Second part, the compound before the results:

| Structure (SMILES) | IC50 [1] [nM] | AUC [2] [µg·h/mL] | Cmax [2] [µg/mL] | half-life [2] [h] |
| --- | --- | --- | --- | --- |
| Cc1cc(C(F)(F)F)cc2ccn(Cc3cccc(C(=O)O)c3F)c12 [Compound 16, 3-((7-Methyl-5-(trifluoromethyl)-1H-indol-1-yl)methyl)-2-fluorobenzoic acid] | ≤ 200 | 612 | 93 | 3.39 |
| O=C(O)c1cccc(Cn2ccc3c(Cl)c(Cl)ccc32)c1F [Compound 81, 3-((4,5-Dichloro-1H-indol-1-yl)methyl)-2-fluorobenzoic acid] | ≤ 200 | – | – | – |
| O=C(O)c1cccc(Cn2ncc3cc(OC(F)(F)F)cc(Br)c32)c1F [Compound 27, 3-((7-Bromo-5-(trifluoromethoxy)-1H-indazol-1-yl)methyl)-2-fluorobenzoic acid] | ≤ 200 | – | – | – |
| N#Cc1ccc2c(ccn2Cc2cccc(C(=O)O)c2F)c1Cl [Compound 74, 3-((4-Chloro-5-cyano-1H-indol-1-yl)methyl)-2-fluorobenzoic acid] | ≤ 200 | – | – | – |
| O=C(O)c1cccc(Cn2ncc3cc(Cl)cc(Cl)c32)c1F [Compound 30, 3-((5,7-Dichloro-1H-indazol-1-yl)methyl)-2-fluorobenzoic acid] | ≤ 200 | – | – | – |
| O=C(O)c1cccc(Cn2ccc3cc(C(F)(F)F)cc(Br)c32)c1F [Compound 15, 3-((7-Bromo-5-(trifluoromethyl)-1H-indol-1-yl)methyl)-2-fluorobenzoic acid] | ≤ 200 | – | – | – |
| O=C(O)c1cccc(Cn2ccc3cc(Cl)cc(Cl)c32)c1Cl [Compound 82, 2-Chloro-3-((5,7-dichloro-1H-indol-1-yl)methyl)benzoic acid] | 200 to 500 | – | – | – |
| O=C(O)c1cccc(Cn2ccc3c(Cl)ccc(Cl)c32)c1F [Compound 80, 3-((4,7-Dichloro-1H-indol-1-yl)methyl)-2-fluorobenzoic acid] | 500 to 1000 | – | – | – |
